# In patent publication US20250369032A1 (priority 2023, published 2025):
# Where “and” joins values, the source holds several entries; their conditions need not be identical. Equal values may be shown once. Read-outs that look alike come from different tables or passages of the source.
# What was measured:
# skin = details: cited from earlier work
# alkaline phosphatase [1] = biological target: T1, alkaline phosphatase (Bos taurus, UniProt P19111)
# Protocol: Two different dosing concentrations were evaluated, 10 μL of test chemical added to 90 μL of alkaline phosphatase reaction reagent and 50 μL of test chemical added to 50 μL of alkaline phosphatase reaction reagent; all aliquoted in 96-well plates.
# • 1. Alkaline phosphatase reaction reagent (fresh, 1:100) • a. Take 4 mL of AP (1:10) stock solution, add to 36 mL PBS. Vortex mix and then invert to mix 10 times • 2. Prepare alkaline phosphatase reaction reagent for every condition • a. 200 μL AP (1:10) in 1.8 mL PBS • b. […] 200 μL AP (1:10) in 1.8 mL Acetone • 3. Prepare 96-well plates for dosing • 4. Prepare 96-well plates for PNPP reading (3 wells for each test chemical) • a. Aliquot with 200 μL PNPP
# • 1. Set 1 • a. 10 μL chemical added to 90 μL AP reaction reagent • 2. Set 2 • a. 50 μL chemical added to 50 μL AP reaction reagent • 3. Incubate for 3 hours • a. To the prepared 96-well plate with 200 μL PNPP aliquoted, add 20 μL • b. […] To the prepared 96-well plate with 200 μL PNPP aliquoted, add 20 μL • b.
# In our next study, we focused on ethanol and buffered saline (potassium chloride, potassium phosphate monobasic, sodium chloride, sodium phosphate dibasic) as our solvents.
# • 1. Alkaline phosphatase reaction reagent • a. 1:100 • i. PBS: Take 400 μL of AP (1:10) stock solution, add to 3.6 mL PBS. Vortex mix and then invert to mix 10 times • ii. […] Vortex mix and then invert to mix 10 times • b. 1:1000 • i. PBS: Take 400 μL of AP (1:100) stock solution, add to 3.6 mL PBS. Vortex mix and then invert to mix 10 times • ii. […] Vortex mix and then invert to mix 10 times • 2. Prepare 0.5 mL microcentrifuge tubes for dosing • a. One set for room temperature, one set for 37° C. • 3. Prepare 96-well plates for PNPP reading (3 wells for each test chemical) • a. Aliquot with 200 μL PNPP
# • 1. In each microcentrifuge tube for each condition, add 180 μL of the corresponding AP reaction reagent • 2. Add 20 μL of the test chemical to each microcentrifuge tube • 3. Incubate for 4 hours (one set at room temperature; one set at 37° C.) • 4. To prepared 96-well plates with 200 μL PNPP aliquoted, add 20 μL of each microcentrifuge tube to the corresponding well • 5.
# alkaline phosphatase [2] = biological target: T1, alkaline phosphatase; assay type: biochemical; parameters: purchased Sigma Aldrich, St. Louis, MO P0114 (original source); P7640 (second source, 'new AP' condition only)
# alkaline phosphatase [3] = biological target: T1, alkaline phosphatase; assay type: biochemical; parameters: purchased Sigma Aldrich, St. Louis, MO P0114 (original source); P7640 (second source, 'new AP' condition only); details: for prediction based on OD405 values (FIG. 6D): original alkaline phosphatase 1:100 dilution; for optical density readings (FIG. 4): repeat, without discs
# Source text: Our next study focused on an in vitro method of detecting the potential of dermal corrosives to inhibit nonspecific phosphatases that may be released from the skin. We decided to test pure […] instead of relying on endogenous skin phosphatase. Alkaline phosphatase (Sigma Aldrich, St. Louis, MO) was purchased and suspended to make the reaction reagent (10,000 units). […] We note that the ratio used was 0.1 g/ml or 10% chemical-which is far in excess of any pharmaceutical applications. We further note that pharmaceutical enzyme inhibition tests, studies an use involve highly specific active site binding and these assays are conducted at ratios of micrograms-femtograms per ml. These studies are done at these ranges because these are the realistic concentrations for drug applications and therapeutics. […] So when a 50 Kg human consumes the tables, the tissues will be exposed at a 5 mg/50 kg=0.1 mg/kg=0.0000001 g/ml.
# Next two quantitative methods were evaluated: 1) using the discs parts from our OptiSafe™ test method and 2) directly into the 24-well plate.
# • 1. Alkaline phosphatase reaction reagent • a. Take 1 vial of AP, add 1 mL of PBS, mix by pipette/re-pipette 10 times • b. To a 50 mL conical tube, add 1 mL of the AP solution prepared above and 40 mL of PBS • 2. Prepare two 24-well plates (1 with discs, 1 without discs) • 3. […] Aliquot 200 μL PNPP and PBS
# • 1. Plate 1 (No Discs) • a. Add 1.25 mL from the prepared PBS-AP conical tube to each well (11 wells) • b. Add 100 μL of the test material to the well, mix with the same pipette tip, dispose and repeat for the rest of the test materials • c. Wrap the plate in saran wrap and place into the container • 2. Plate 2 (Discs) • a. Configure the 11 discs in the plate so the plate cover is stable • b. Add 1.25 mL from the prepared PBS-AP conical tube to each well (11 wells) • c. Add 100 μL of the test material to the center of the disc and repeat for the rest of the test materials • d. Put the plate cover on and place into the container • 3. […] Incubate for 1 hour
# For the new study, the alkaline phosphatase was suspended in phosphate buffered saline (PBS) to make the reaction reagent. Then, 100 μL of the test chemical is added directly into the corresponding wells on a 24-well plate with 1.25 mL of alkaline phosphatase reaction reagent already aliquoted.
# • 1. Alkaline phosphatase reaction reagent • a. Take 1 vial of AP, add 1 mL of PBS, mix by pipette/re-pipette 10 times • b. To a 50 mL conical tube, add 1 mL of the AP solution prepared above and 40 mL of PBS • 2. Prepare two 24-well plates • 3. […] Aliquot with 200 μL PNPP and PBS • 4. Prepare glass vials Repeat Procedure from Jan. […] 24-well plate • a. Add 1.25 mL from the prepared PBS-AP conical tube to each well (11 wells) • b. Add 100 μL of the test material to the well, mix with the same pipette tip, dispose and repeat for the rest of the test materials • c. Wrap the plate in saran wrap and place into the container • 2. […] To the prepared 96-well plate with 200 μL PNPP or PBS, add 20 μL from the 24-well plate • 4. Incubate for 1 hour • 5.
# • 1. 24-well plate • a. Add 1.25 mL from the prepared PBS-AP conical tube to each well (11 wells) • b. Add 100 μL of the test material to the well, mix with the same pipette tip, dispose and repeat for the rest of the test materials • c. After 10 minutes, mix each well • 2.
# [4] = system: endogenous skin phosphatase; assay type: biochemical, porcine; details: optical density compared to the naïve condition
# Protocol: Our next studies involved applying the test substance (500 μL) directly to the epidermis side of previously frozen porcine skin (Spear Products, Coopersburg, PA) that is placed in a holder that only exposes the epidermis side for 30 minutes, adding phosphate buffered saline (PBS) with added sodium azide (metabolic inhibitor that ensure no viable tissue), then aliquoting into cuvettes to read at an optical density of 300 nm. […] So, at the end of the initial studies described above, almost out of frustration, we tried to probe for released phosphatase activity using p-Nitrophenyl phosphate disodium salt (PNPP; Sigma Aldrich, St. Louis, MO) substrate solution to detect any presence of phosphatase.
# • 1. Thaw 2 pieces of frozen porcine skin • a. Punch out as many skin discs and mount in holders • 2. Label cuvettes (3 for each chemical)
# • 1. Add 500 μL of test chemical to holder; incubate at room temperate for 30 minutes • 2. After 30 minutes, add 2 mL of PBS-Azide to both the holder containing the test chemical; forcefully pipette and re-pipette 10 times • 3. From the holder, aliquot 400 μL into 3 cuvettes; forcefully pipette and re-pipette 3 times before dispensing into cuvettes
# Skin corrosion by GHS Category 1 dermal corrosive chemicals results in the disintegration of the epidermis into the dermis.
# porcine skin = details: R 1 and 2
# Protocol: Our initial studies involved using fresh and frozen porcine skin “buttons”. These buttons were punched out of porcine skin (Spear Products, Cooopersburg, PA) using a […] biopsy punch tool. Three different kinds of skin buttons were prepared from fresh porcine skin, frozen porcine skin, and frozen porcine skin with the fatty layer removed. […] The next day, the tubes were taken out and vortexed and 500 μL of the solution was aliquoted into cuvettes to read at three different optical density wavelengths (OD190, OD290, OD300) to evaluate the best response.
# • 1. Thaw 2 pieces of frozen porcine skin • 2. Punch out buttons: 24 buttons in each tube filled with 40 mL PBS-Azide
# • 1. Plate layout for dosing:
# • 1. Dose each tissue with 140 μL of test chemical • 2.
# • 1. Take out of incubator and vortex pulse 3× • 2. Aliquot 500 μL to cuvette and read results at OD190, OD290, and OD300
# There were three readings done at an optical density of 190, 290, and 300 nm to evaluate the best response. […] To address the variable exposure conditions, our next studies involved placing a larger porcine skin section into a holder that exposes only the epidermis side with no potential for test chemical exposure from the backside or through the sides.
# [5] = skin, chemical lists of the protocols
# [6] = 4 mL glass vials, 30 μL into 300 μL, 1:100, 4 hours room temperature, 3 mL PNPP 1 hour
# [7] = 1:100, 20 μL into 180 μL, 0.5 mL microcentrifuge tubes, 4 hours RT, PNPP 60 min, 405 nm
# [8] = average of R1-R3, 1:100, 20 μL into 180 μL, 4 hours RT, PNPP 60 min, 405 nm
# [9] = original alkaline phosphatase 1:1, 18 hours room temperature
# [10] = 10-minute test chemical exposure
# [11] = 18 hours 37° C., PNPP 1 hour, 405 nm
# [12] = fresh porcine skin, 140 μL, 18 hours at 37° C. in PBS-Azide
# [13] = frozen porcine skin with fat layer removed
# T1 sequence (P19111 20-506): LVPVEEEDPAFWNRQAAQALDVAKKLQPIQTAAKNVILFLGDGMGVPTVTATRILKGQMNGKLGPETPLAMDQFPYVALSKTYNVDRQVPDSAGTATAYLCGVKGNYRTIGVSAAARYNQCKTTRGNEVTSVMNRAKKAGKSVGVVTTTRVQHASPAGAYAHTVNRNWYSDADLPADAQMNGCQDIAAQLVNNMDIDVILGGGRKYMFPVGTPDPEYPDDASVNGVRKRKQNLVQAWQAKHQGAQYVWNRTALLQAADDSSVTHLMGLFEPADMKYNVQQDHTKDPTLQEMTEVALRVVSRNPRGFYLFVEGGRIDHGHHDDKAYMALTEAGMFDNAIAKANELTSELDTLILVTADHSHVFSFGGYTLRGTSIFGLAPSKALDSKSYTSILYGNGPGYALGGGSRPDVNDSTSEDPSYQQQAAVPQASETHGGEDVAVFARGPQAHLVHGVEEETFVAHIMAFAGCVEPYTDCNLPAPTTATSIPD
smiles,measurement,setting,value
Cc1ccc(C(C)C)cc1O,in vivo GHS,skin; [5],Cat. 1B/1C
same,OD405 readings (FIG. 11D),alkaline phosphatase [1]; [6],3.444 and 3.465 and 3.398
same,A1-Results R1,alkaline phosphatase [2]; [7],0.211
same,A1-Results R3,alkaline phosphatase [2]; [7],0.272
same,OD405 readings (FIG. 11B),alkaline phosphatase [2]; [6],1.990 and 1.926
same,A1-Results AVG,alkaline phosphatase [2]; [8],0.242
same,prediction based on OD405 values (FIG. 6B),alkaline phosphatase [2]; [9],incorrectly predicted
same,OD405 readings (FIG. 6D),"alkaline phosphatase [2]; original alkaline phosphatase 1:100 (100 units), 100 μL into 1 mL, 18 hours room temperature, PNPP 1 hour",0.991 and 0.974 and 1.167
"C=CCCC=C [1,5-Hexadiene]",OD405 reading (FIG. 7A),alkaline phosphatase [1],1.702
same,OD405 reading (FIG. 7B),alkaline phosphatase [1],2.947
same,A1-Results R1,alkaline phosphatase [2]; [7],3.502
same,A1-Results R3,alkaline phosphatase [2]; [7],3.498
same,A1-Results AVG,alkaline phosphatase [2]; [8],3.496
ClCCCCBr [1-Bromo-4-chlorobutane],OD405 reading (FIG. 9B),alkaline phosphatase [1],0.799
same,A1-Results R1,alkaline phosphatase [2]; [7],3.387
same,A1-Results R3,alkaline phosphatase [2]; [7],3.502
same,A1-Results AVG,alkaline phosphatase [2]; [8],3.464
CC(C)(C)c1ccccc1O [2-tert-Butylphenol],prediction based on OD405 values (FIG. 6D),alkaline phosphatase [3],correctly predicted
same,in vivo GHS,"skin; rabbit, in vivo",Cat. 1B/1C
same,A1-Results R1,alkaline phosphatase [2]; [7],0.437
same,A1-Results R3,alkaline phosphatase [2]; [7],0.607
same,A1-Results AVG,alkaline phosphatase [2]; [8],0.524
same,prediction based on OD405 values (FIG. 6B),alkaline phosphatase [2]; [9],incorrectly predicted
CC(=O)O [Acetic acid],optical density readings (FIG. 3B),alkaline phosphatase [3],0.104 and 0.129 and 0.101
same,Corrosive,"skin; rabbit, in vivo",Yes
same,percent of phosphatase measured (first reading),[4],19.1%
same,percent of phosphatase measured (second reading),[4],18.6%
same,"percent of phosphatase measured, average",[4],18.9%
same,A1-Results AVG,alkaline phosphatase [2],0.096
same,A1-Results R1,alkaline phosphatase [2],0.096
same,A1-Results R3,alkaline phosphatase [2],0.096
same,optical density readings (FIG. 3A),alkaline phosphatase [2],0.106 and 0.102 and 0.103
CN(C)CCCNCCCN [Dimethyldipropylenetriamine],10-minute PNPP incubation readings (FIG. 5A),alkaline phosphatase [3]; [10],3.449 and 3.502 and 3.500
same,18-hour PNPP incubation readings (FIG. 5D),alkaline phosphatase [3]; [10],0.112 and 0.105 and 0.110
same,prediction based on OD405 values (FIG. 6C),alkaline phosphatase [3]; original alkaline phosphatase 1:10 dilution,mispredicted
same,prediction based on OD405 values (FIG. 6D),alkaline phosphatase [3],correctly predicted
same,optical density readings (FIG. 4),alkaline phosphatase [3]; [11],0.132 and 0.128 and 0.127
same,optical density readings (FIG. 3A),"alkaline phosphatase [3]; with discs, 100 μL into 1.25 mL reaction reagent (10,000 units), 18 hours 37° C., PNPP 1 hour, 405 nm",0.152 and 0.159 and 0.140
same,Corrosive,skin; Table 2,Yes
same,percent of phosphatase measured (first reading),[4],23.5%
same,percent of phosphatase measured (second reading),[4],17.7%
same,"percent of phosphatase measured, average",[4],20.6%
same,OD190,porcine skin; [12],>3A
same,OD290,porcine skin; [12],0.922 and 1.016
same,OD300,porcine skin; [12],0.819 and 0.887
same,OD190,porcine skin; [13],0.610 and 0.594
same,OD290,porcine skin; [13],0.238 and 0.170
same,OD300,porcine skin; [13],0.162 and 0.118
same,OD190,porcine skin; frozen porcine skin,>3A
same,OD290,porcine skin; frozen porcine skin,0.936 and 0.775
same,OD300,porcine skin; frozen porcine skin,0.806 and 0.636
same,A1-Results R1,alkaline phosphatase [2]; [7],0.118
same,A1-Results R3,alkaline phosphatase [2]; [7],0.124
same,1-hour PNPP incubation readings (FIG. 5B),alkaline phosphatase [2]; [10],0.352 and 0.283 and 0.333
same,4-hour PNPP incubation readings (FIG. 5C),alkaline phosphatase [2]; [10],0.122 and 0.116 and 0.114
same,A1-Results AVG,alkaline phosphatase [2]; [8],0.121
same,optical density readings (FIG. 3B),"alkaline phosphatase [2]; without discs, 100 μL into 1.25 mL reaction reagent (10,000 units), 18 hours 37° C., PNPP 1 hour, 405 nm",0.138 and 0.176 and 0.133
NCCO [Ethanolamine],optical density readings (FIG. 3B),alkaline phosphatase [3],0.174 and 0.185 and 0.175
same,Corrosive,"skin; rabbit, in vivo",Yes
same,percent of phosphatase measured (first reading),[4],20.1%
same,percent of phosphatase measured (second reading),[4],19.6%
same,"percent of phosphatase measured, average",[4],19.9%
same,optical density readings (FIG. 3A),alkaline phosphatase [2],0.170 and 0.166 and 0.172
"CN(C)Cc1ccccc1 [N,N-Dimethylbenzylamine]",OD405 reading (FIG. 9B),alkaline phosphatase [1],0.587
same,OD405 readings (FIG. 11D),alkaline phosphatase [1],3.429 and 3.249 and 3.164
same,A1-Results AVG,alkaline phosphatase [2],3.240
same,A1-Results R1,alkaline phosphatase [2],3.265
same,A1-Results R3,alkaline phosphatase [2],3.230
same,OD405 readings (FIG. 6D),alkaline phosphatase [2],3.431 and 3.502 and 3.61
same,OD405 readings (FIG. 11B),alkaline phosphatase [2],3.360 and 3.238 and 3.273
same,prediction based on OD405 values (FIG. 6B),alkaline phosphatase [2],incorrectly predicted
[K+].[OH-] [Potassium hydroxide (10%)],prediction based on OD405 values (FIG. 6D),alkaline phosphatase [3],correctly predicted
same,optical density readings (FIG. 4),alkaline phosphatase [3]; [11],0.123 and 0.124
same,in vivo GHS,skin; [5],Cat. 1B (Category 1B (corrosive responses in at least one animal during exposure period of ≤1 hour))
same,A1-Results R1,alkaline phosphatase [2]; [7],0.118
same,A1-Results R3,alkaline phosphatase [2]; [7],0.112
same,A1-Results AVG,alkaline phosphatase [2]; [8],0.114
